Data on 2 molecules can be found in patent US12514833B2, “Combination of ibuprofen and tramadol for relieving pain” (FARMALÍDER, S.A., priority 2019, dated 2026).

SMILES strings stand for the structures. Structures can show the parent of a compound that is named as a salt.

What all share (assay type): in vivo, human
For series [1], the system named is patients with visceral moderate to intense pain after non-oncologic abdominal hysterectomy. In words: Example 3: phase III trial, oral ibuprofen arginate/tramadol HCl (400/37.5), pain after hysterectomy (VAS, rescue medication, adverse effects). Conditions: tramadol HCl 50 mg; for Total rescued patients (number) / Total rescued patients (%): 8 doses every 6 hours, 48 hours; for Total rescued patients (number): N = 91/94/98, ibuprofen arginate 400 mg; for Total rescued patients (%) / Rescued patients at 24 h (%) / Rescued patients at 24 h (number) / Average time until rescue: ibuprofen arginate 400 mg; for Rescued patients at 24 h (%) / Rescued patients at 24 h (number): first 24 h of the study. The method, then:
A phase III, multicentre, randomized, double-blind, placebo-controlled, study was performed to assess the compared efficacy and safety of the combination of ibuprofen arginate/tramadol HCl (400 mg ibuprofen/37.5 mg tramadol HCl) administered by the oral route, compared to oral tramadol (50 mg), oral ibuprofen arginate (400 mg ibuprofen) and placebo for treating adult patients (aged 18 or more) suffering from visceral moderate to intense pain after non-oncologic abdominal hysterectomy.
(§1) Pain intensity was assessed using the Visual Analogue Scale (VAS).
The patients selected for the study were adults suffering from moderate to severe pain (VAS 0-100≥40 mm) after total or partial abdominal hysterectomy for benign, non-oncologic disease, which required hospitalization during at least 48 hours.
The patients were divided in four groups, receiving the following medication: • Group 1: ibuprofen arginate/tramadol HCl 400 mg/37.5 mg (91 patients) • Group 2: ibuprofen arginate 400 mg (94 patients) • Group 3: tramadol HCl 50 mg (98 patients) • Group 4: placebo (93 patients)
(§2) The amount of ibuprofen arginate (400 mg) is expressed as the amount of ibuprofen in acidic form.
The combination of ibuprofen arginate/tramadol HCl administered to the patients of Group 1 was in the form of granulate for oral administration (as described in Example 4 below). Each dosage comprised 340 mg of L-arginine.
Patients of Group 2 received the commercial medicine Espidifen® 400 mg, each dose comprising 400 mg of ibuprofen, as 770 mg of ibuprofen arginate.
Patients of Group 3 received the commercial medicine Adolonta® 100 mg/ml oral solution, and a dose of 50 mg of tramadol HCl was administered.
After the surgery, the pain intensity of each patient was evaluated according to the VAS test until reaching the value ≥40 mm. At that moment, each patient was recruited and assigned to one of the four groups in a randomized way and the corresponding medication was administered. A new VAS test was performed after the administration of the first dose of the medication, which was taken as the basal value. Subsequently, 7 more doses of the assigned medication were administered, with an interval of 6 hours between doses, so a total of 8 doses were administered to each patient.
After the administration of the first dosage of each medication, the evolution of the patients was followed until 48 hours after the first dosage, by assessing the change in pain intensity.
After 30 minutes from the first dosage, patients were allowed to request a rescue medication, if needed. Rescue medication was 1 g paracetamol given by the oral route. If a second rescue medication was necessary, a capsule of 575 mg metamizole was administered.
Pain intensity was assessed for each patient at the following time points: 0 (basal), 1, 2, 4, 6, 8, 10, 12, 18, 24, 30, 36, 42 and 48 hours after the administration of the first dosage of the medication. For each of the four groups, the average VAS value was calculated at each time point.

Series [2] deals with patients with moderate to intense somatic pain after dental surgery. As to the kind of experiment: Example 2: phase III trial, oral ibuprofen arginate/tramadol (400/37.5), pain after dental surgery (VAS, rescue medication, safety). Particulars: 4 doses every 6 hours, 24 hours follow-up, tramadol HCl 50 mg; for Number of rescued patients: N = 95/97/98, ibuprofen arginate 400 mg; for % of rescued patients: ibuprofen arginate 400 mg. The method, then:
A phase III, multicentre, randomized, double-blind, placebo-controlled study was performed to assess the compared efficacy and safety of the combination of ibuprofen arginate/tramadol HCl (400 mg ibuprofen/37.5 mg tramadol HCl) administered by the oral route, compared to oral tramadol (50 mg), oral ibuprofen arginate (400 mg ibuprofen) and placebo for treating adult patients (aged 18 or more) suffering from moderate to intense somatic pain after dental surgery.
as §1
The patients selected for the study were adults suffering from moderate to severe pain (VAS 0-100≥45 mm) after surgical extraction of at least two third molars, if only two third molars were extracted, they should be ipsilateral and at least one of them impacted, involving bone removal.
The patients were divided in four groups, receiving the following medication: • Group 1: ibuprofen arginate/tramadol HCl 400 mg/37.5 mg (95 patients) • Group 2: ibuprofen arginate 400 mg (97 patients) • Group 3: tramadol HCl 50 mg (98 patients) • Group 4: placebo (93 patients)
as §2
The combination of ibuprofen arginate/tramadol HCl administered to the patients of Group 1 was in the form of a granulate for oral administration (as described in Example 4). Each dosage comprised 340 mg of L-arginine.
The ibuprofen arginate 400 mg administered to the patients of Group 2 corresponded to the commercial medicine Espidifen® 400 mg, each dose comprising 400 mg of ibuprofen, given as 770 mg of ibuprofen arginate.
The 50 mg dose of tramadol HCl 50 mg of Group 3 was administered using the commercial medicine Adolonta® 100 mg/ml oral solution.
After the dental surgery, the pain intensity of each patient was evaluated according to the VAS test until reaching the value ≥45 mm. At that moment, the patient was assigned to one of the four groups in a randomized way and the corresponding medication was administered. A new VAS test was performed after the administration of the first dose of the medication, which was taken as the basal value. 4 doses of each medication were administered, with an interval of 6 hours between doses.
After the administration of each medication, the evolution of patients was followed until 24 hours after the first dosage, by assessing the change in pain intensity.
Patients were allowed to ask for rescue medication during that period, starting 30 minutes after the administration of the first dosage. […]
Pain intensity was assessed for each patient at the following time points: 0 (basal), 1, 2, 3, 4, 5, 6, 8, 12 and 24 hours after the administration of the medication. For each of the four groups, the average VAS value was calculated.

The test system of series [3] is patients with moderate to intense pain after dental surgery. In words: Example 1: phase III pilot trial, intravenous ibuprofen arginate combined with tramadol, pain after dental surgery (VAS, rescue medication, adverse effects). Conditions: for VAS (average value): single iv infusion. The method, then:
A phase III, multicentre, randomized, double-blind, placebo-controlled, pilot study was performed to assess the compared efficacy and safety of intravenous ibuprofen arginate (400 mg) combined with two different doses of tramadol hydrochloride (37.5 and 75 mg) and of intravenous tramadol 100 mg in patients suffering from moderate to intense pain after dental surgery.
as §1
The patients were divided in four groups, receiving the following medication: • Group 1: ibuprofen arginate/tramadol HCl 400 mg/37.5 mg (16 patients) • Group 2: ibuprofen arginate/tramadol HCl 400 mg/75 mg (18 patients) • Group 3: tramadol HCl 100 mg (18 patients) • Group 4: placebo (saline solution) (17 patients)
The amount of ibuprofen arginate (400 mg) is expressed as the amount of ibuprofen in acidic form. The amount of L-arginine in each composition in groups 1 and 2 was 356 mg, which corresponds to a molar ratio ibuprofen:arginine 1:1.054.
The compositions of groups 1 to 3 were aqueous solutions of the drugs prepared with water for injection. Other excipients included in the compositions were sodium chloride, used as tonicity agent, to reach an osmolality of 310-360 mOsm/Kg, and hydrochloric acid and sodium hydroxide to adjust the pH of the solution to a value in the range 6.8-7.8. The volume of the composition in all groups was 100 ml, which was infused intravenously during 30 minutes, in a single administration. The preparation of the composition used for Group 1 is analogous as disclosed in Example 5. The preparation of the composition used for Group 2 was equivalent, but using 75 mg of tramadol HCl instead of 37.5 mg.
Thus, after the dental surgery, the pain intensity of each patient was evaluated according to the VAS test until reaching the value ≥55 mm. At that moment, the patient was assigned to one of the four groups in a randomized way and the corresponding medication was administered not later than 15 minutes after randomization and not later than 25 minutes after VAS test. A new VAS test was performed at the beginning of the infusion, which was taken as the basal value.
After the administration of each medication, the evolution of patients was followed during 4 hours, by assessing the change in pain intensity.
Patients were allowed to ask for rescue medication during that period, starting 30 minutes after the administration of each treatment. Rescue medication was 1 g paracetamol given by the oral route. If a second rescue medication was necessary, a capsule of 575 mg metamizole was administered. If rescue medication was administered before 4 hours after the administration of the study medication, the patient left the study (but remained still included for assessing safety parameters and was under monitoring for further 4 hours).
Pain intensity was assessed for each patient at the following time points: 0 (basal), 15, 30, 45, 60, 75, 90, 105, 120, 150, 180, 210, and 240 minutes after the administration of the medication. For each of the four groups, the average VAS value was calculated.

Regarding `COc1cccc([C@]2(O)CCCC[C@H]2CN(C)C)c1` (racemic) [tramadol HCl, (±)-cis-2-[(dimethylamino)methyl]-1-(3-methoxyphenyl) cyclohexanol], the “Total rescued patients (number)” value in series [1] amounted to 31. Besides, in series [1], the “Total rescued patients (%)” value is recorded as 31.6%. In series [1], the “Rescued patients at 24 h (%)” value was 28.6%. The “Rescued patients at 24 h (number)” value in series [1] amounted to 28. Moreover, the “Average time until rescue” value was found to be 8.97 h in series [1] and 70 min in series [3] (iv, tramadol HCl alone 100 mg). Besides, the “number of adverse effects reported relative to Group 1 (ibuprofen/tramadol)” value in series [1] is on record as “twice”. Also, the “Number of rescued patients” value is on record as 38 in series [2] and 9 in series [3] (iv, 4 hours follow-up, N = 16/18/18, tramadol HCl alone 100 mg). Also, the “% of rescued patients” value in series [2] is given as 38.8%; in series [3] (iv, 4 hours follow-up, tramadol HCl alone 100 mg), 50.0%. The “Number of patients reporting AE” value in series [3] (iv, N = 16/18/18, tramadol HCl alone 100 mg) worked out at 5. For the same molecule, the “% of patients reporting AE” value in series [3] (iv, tramadol HCl alone 100 mg) is 27.8%. Further, the “Number of AE” value in series [3] (iv, tramadol HCl alone 100 mg) is 9. Besides, the “VAS (average value)” value in series [3] (15 min after administration, tramadol HCl alone 100 mg) is given as 48.55 mm; in series [3] (30 min, tramadol HCl alone 100 mg) it was 45.28 mm; in series [3] (45 min, tramadol HCl alone 100 mg) it was 47.11 mm; in series [3] (60 min, tramadol HCl alone 100 mg) it was 51.67 mm; in series [3] (75 min, tramadol HCl alone 100 mg), 54.72 mm; in series [3] (90 min, tramadol HCl alone 100 mg), 54.44 mm. In addition, the “VAS (average value)” value in series [3] (105 min, tramadol HCl alone 100 mg) was 53.67 mm; in series [3] (120 min, tramadol HCl alone 100 mg) it was 51.55 mm; in series [3] (150 min, tramadol HCl alone 100 mg), 49.39 mm; in series [3] (180 min, tramadol HCl alone 100 mg), 47.94 mm; in series [3] (210 min, tramadol HCl alone 100 mg) it was 46.72 mm; in series [3] (240 min, tramadol HCl alone 100 mg), 44.50 mm. Besides, the “VAS (average value)” value in series [3] (time 0 min (basal), tramadol HCl alone 100 mg) was found to be 72.83 mm.

For the molecule `CC(C)Cc1ccc(C(C)C(=O)O)cc1` (racemic) [ibuprofen arginate, (RS)-2-(4-(2-methylpropyl)phenyl)propanoic acid], in series [1], the “Total rescued patients (number)” value turned out to be 23, the “Total rescued patients (%)” value came out at 24.5%, the “Rescued patients at 24 h (%)” value is reported as 22.3% and the “Rescued patients at 24 h (number)” value is on record as 21. For the same molecule, the “Average time until rescue” value in series [1] is 8.43 h. Also, in series [2], the “Number of rescued patients” value was 6 and the “% of rescued patients” value was determined as 6.2%.
